Publication PMC4640224, “Phosphorylation of a splice variant of collapsin response mediator protein 2 in the nucleus of tumour cells links cyclin dependent kinase-5 to oncogenesis” (BMC Cancer, 2015)

What was measured:
CDK5 = test system: CDK5; set-up: method as in PMID 19075597; details: application of carboplatin; cited from earlier work
p25/CDK5 [1] = target: T1, p25/CDK5 (Homo sapiens, UniProt Q00535+Q15078); type: biochemical; details: inhibitor 10 μM, 30 min pre-incubation, GST-tau 0.5 μM, 2 mUnits kinase, Fig. 2b
T1 construct: purchased Millipore UK Ltd, Herts, UK
T1 sequence (Q00535 whole entry): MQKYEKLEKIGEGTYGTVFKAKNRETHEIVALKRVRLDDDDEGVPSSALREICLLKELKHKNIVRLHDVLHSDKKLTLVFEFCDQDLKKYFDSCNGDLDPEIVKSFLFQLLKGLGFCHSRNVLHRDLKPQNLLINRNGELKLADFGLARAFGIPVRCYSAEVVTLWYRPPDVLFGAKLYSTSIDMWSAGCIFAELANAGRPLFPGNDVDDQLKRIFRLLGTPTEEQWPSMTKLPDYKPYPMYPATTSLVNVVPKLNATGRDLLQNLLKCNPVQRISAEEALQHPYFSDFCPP
T1 sequence (Q15078 99-307 partner limits assumed): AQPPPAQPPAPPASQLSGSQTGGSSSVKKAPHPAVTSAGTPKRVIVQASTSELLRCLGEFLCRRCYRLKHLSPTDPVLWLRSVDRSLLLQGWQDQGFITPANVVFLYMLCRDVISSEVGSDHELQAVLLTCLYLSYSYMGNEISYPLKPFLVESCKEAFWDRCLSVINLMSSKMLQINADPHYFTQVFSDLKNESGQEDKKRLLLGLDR
Experimental: (§1) Recombinant protein substrates were incubated with 2mUnits of each CMGC kinase as for MBP above for the times and at the concentrations given in figure legends. Reactions were terminated by the addition of SDS-PAGE loading buffer and heating to 70 °C for 15 mins. Aliquots were subjected to SDS-PAGE, stained with Coomassie Brilliant Blue (CBR-250), the gels were dried and radiolabeled bands visualized by autoradiography. Quantification of nmoles of phosphate incorporated was obtained by excising the stained protein band from the gel and counting in scintillation fluid.
(§2) Recombinant protein substrates (0.5 μM final concentration) were incubated with 2mUnits of each CDK5 complex and MgCl2 and [γ-32P] ATP (approx 0.5x10^6 CPM/nmole) for 30 mins. Reactions were terminated by the addition of SDS-PAGE loading buffer and heating to 70 °C. […] Data is representative of at least three different experiments

p35/CDK5 [2] = target: T2, p35/CDK5 (Homo sapiens, UniProt Q00535+Q15078); type: biochemical; details: inhibitor 10 μM, 30 min pre-incubation, GST-tau 0.5 μM, 2 mUnits kinase, Fig. 2b
T2 construct: purchased Millipore UK Ltd, Herts, UK
T2 sequence (Q00535 whole entry): as the sequence (Q00535 whole entry) above
T2 sequence (Q15078 whole entry partner): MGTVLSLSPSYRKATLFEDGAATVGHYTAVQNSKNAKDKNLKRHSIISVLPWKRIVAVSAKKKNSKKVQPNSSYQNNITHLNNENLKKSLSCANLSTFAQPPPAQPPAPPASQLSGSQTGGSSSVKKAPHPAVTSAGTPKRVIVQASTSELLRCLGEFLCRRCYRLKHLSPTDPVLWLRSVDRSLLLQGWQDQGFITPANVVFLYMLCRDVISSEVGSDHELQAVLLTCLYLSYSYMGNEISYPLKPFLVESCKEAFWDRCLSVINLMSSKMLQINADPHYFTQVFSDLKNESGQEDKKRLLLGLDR
Experimental: as §1, §2

[3] = test system: CDK5 substrate phosphorylation in primary cortical neurons; experiment: Immunofluorescence of CDK5 substrate phosphorylation in primary cortical neurons; type: cell-based, rat; details: 10 μM inhibitor, 3 h, neurons 6 days in vitro, Fig. 3a
Experimental: Embryonic primary cortical neurons were isolated from Sprague–Dawley rats at day 18 gestation. Briefly, following dissection, cortex was digested in 0.25 % trypsin in Hank’s balanced salt solution at 37 °C for 20 min. Cells were manually dissociated by trituration using a fire-polished Pasteur pipette and plated onto 0.01 % poly-l-lysine-coated coverslips at a density of 2–5 × 10^6 cells per 6 cm well, then incubated at 37 °C with 5 % CO2 in Neurobasal medium (Gibco) containing 2 % (vol/vol) B27 serum replacement (Invitrogen), penicillin (Sigma; 100 units/ml), streptomycin (Sigma; 100 μg/ml), and 1 % (vol/vol) L-glutamine (Sigma). HeLa and tumour cell lines were maintained in DMEM supplemented with 4.5 g/L glucose, 10 % (vol/vol) FCS, 1 % (vol/vol) penicillin (100 units/ml)/streptomycin (100 μg/ml) at 37 °C in 5 % CO2. […]
Fig. 3 Imaging of CDK5 substrate phosphorylaiton in primary cells. […] Phosphospecific antibodies were detected by Cy-3 bound 2ry antibodies (red) and nuclei were counter-stained with the DNA-binding dye DAPI (blue). […]

[4] = test system: CDK5 substrate phosphorylation in primary cortical neurons; experiment: Immunohistochemistry of CDK5 substrate phosphorylation in paraffin-embedded primary neurons; type: cell-based, rat; details: 10 μM inhibitor, 3 h, formaldehyde fixed, Fig. 3b
Experimental: Sections of formalin-fixed, paraffin embedded tissue were cut at a thickness of 4 μm, collected onto Polysine-coated microscope slides (VWR International) and dried overnight at 37 °C. Sections were dewaxed in Histoclear, rinsed in alcohol and endogenous peroxidase was quenched with 0.5 % hydrogen peroxide (100 volumes) in methanol at room temperature for 35 min. After washing in water, antigen retrieval was performed by boiling sections in 10 mM citrate buffer, pH 6.0 for 15 min in a microwave. After cooling, sections were rinsed in PBS and blocked with 5 % normal serum in PBS containing 5 % (v/v) avidin (Vector Laboratories, Peterborough, UK) for 30 min at room temperature. Sections were washed in PBS and incubated with primary antibody in 5 % normal serum in PBS containing 5 % (v/v) biotin at 4 °C overnight. After washing in PBS, sections were then incubated with biotinylated secondary antibody (1:250) (Vector Laboratories) for 30 min at room temperature, followed by streptavidin complexed with biotinylated peroxidase (Vectastain ABC kit; Vector Laboratories) at room temperature for 30 min. […] Cell nuclei were counterstained with haematoxylin (Sigma), dehydrated through graded alcohols, cleared in HistoClear and mounted in DPX. Images were taken using a Spot Insight QE digital camera or slides were digitally scanned (x40) using an Aperio ScanScope XT.

MCF-7 = MCF-7 breast cancer cell line; cited from earlier work
Description: (§3) Similarly, CDK5 levels decrease in gastric cancer and its nuclear accumulation suppresses gastric tumorigenesis.

MDA-MB321 = MDA-MB321 breast cancer cell line; cited from earlier work
Description: as §3

p35/CDK5 [5] = target: T2, p35/CDK5; experiment: Phosphorylation kinetics of recombinant protein substrates by p35/Cdk5; type: biochemical; details: initial rate, varying substrate concentrations, Mg[γ-32P]ATP, 10 min, 30 °C, Lineweaver-Burk, ND = not determinable, not phosphorylated to a significant level; for Vmax: at least two experiments in duplicate
Experimental: as §1

p25/CDK5 [6] = target: T1, p25/CDK5; experiment: Phosphorylation kinetics of recombinant protein substrates by p25/Cdk5; type: biochemical; details: initial rate, varying substrate concentrations, Mg[γ-32P]ATP, 10 min, 30 °C, Lineweaver-Burk, ND = not determinable, not phosphorylated to a significant level; for Vmax: at least two experiments in duplicate
Experimental: as §1

p35/CDK5 [7] = target: T2, p35/CDK5; experiment: Peptide kinase assay with p35/CDK5; type: biochemical; details: 100 μM peptide; for Rate of phosphorylation compared with related peptides, in words: 1.0 versus 1.1 and 1.2, 1.4 versus 1.3; for Phosphorylation of substrate class peptides, in words: 20 min, Fig. 1b
Experimental: (§4) Specific activity (pmol/min) was determined for all protein kinases by incubating known amounts of kinase (0.01-1 μg) with the generic substrate myelin basic protein (MBP, 0.3 mg/ml final) in kinase buffer (25 mM MOPS pH 7.5, 0.05 % (v/v) Brij-35, 0.25 mM EDTA, 5 % (v/v) glycerol) plus 10 mM MgCl2, and 100 μM [γ-32P] ATP (approx 0.5 × 10^6 CPM/nmol) as previously described. Peptide kinase assays were performed with 2mUnits of each kinase as above, except MBP was replaced with the peptide at the concentration given in figure legends. One unit of activity of each protein kinase was calculated as 1 nmole of phosphate transferred/min.
(§5) Fig. 1 In vitro analysis of primary sequence determinants for p35/CDK5 and p25/CDK5. a The contribution of C-terminal Arg/Lys residues to recognition and phosphorylation by each CDK5 complex was assessed by incubating the peptides at the indicated concentrations with 2 m units of each CDK5 complex for 20 mins and measuring phosphate transferred to each peptide. b Each CDK5 complex was incubated for 20 mins with 100 μM of the indicated peptides representing the primary sequence of the 4 classes of CDK5 substrates. The phosphorylated residue is underlined. c To assess the contribution of specific residues ±2 positions from the target residue a further 4 peptides (at 100 μM) were incubated with 2mUnits of each CDK5 complex for 30 mins. The residue changed from the parent sequence (peptide 1.0) is in italics in each case. *indicates p < 0.05 compared to peptide 1.0. d The rate of phosphorylation of the indicated peptides by several members of the CMGC family of kinases was compared by incubating each peptide (at 50 μM) with 2 m units (as determined against the generic substrate MBP) of each kinase for 30 mins and phosphate transfer measured. In all figures the data is presented as the average of at least two different experiments performed in duplicate ± the SEM, and is given as total picomoles transferred during the assay (a) or pmoles transferred/min (b-d)

p25/CDK5 [8] = target: T1, p25/CDK5; experiment: Peptide kinase assay with p25/CDK5; type: biochemical; details: 100 μM peptide; for Rate of phosphorylation compared with related peptides, in words: 1.0 versus 1.1 and 1.2, 1.4 versus 1.3; for Phosphorylation of substrate class peptides, in words: 20 min, Fig. 1b
Experimental: as §4, §5

[9] = test system: CMGC protein kinase family; experiment: Peptide phosphorylation by several members of the CMGC kinase family (selectivity); type: biochemical; details: 50 μM peptide, 2 mUnits of each kinase, 30 min, Fig. 1d
Experimental: as §4, §5

PICTAIRE = experiment: Peptide kinase assay with […]; type: biochemical; details: 50 μM peptide, 2 mUnits kinase, 30 min, Fig. 1d
Experimental: as §4
Fig. 1 In vitro analysis of primary sequence determinants for p35/CDK5 and p25/CDK5. a The contribution of C-terminal Arg/Lys residues to recognition and phosphorylation by each CDK5 complex was assessed by incubating the peptides at the indicated concentrations with 2 m units of each CDK5 complex for 20 mins and measuring phosphate transferred to each peptide. b Each CDK5 complex was incubated for 20 mins with 100 μM of the indicated peptides representing the primary sequence of the 4 classes of CDK5 substrates. The phosphorylated residue is underlined. c To assess the contribution of specific residues ±2 positions from the target residue a further 4 peptides (at 100 μM) were incubated with 2mUnits of each CDK5 complex for 30 mins. […]

**Q.** Which “Effect on CDK5 activity” value (CDK5) does the source give for N.N.O=C([O-])C1(C(=O)[O-])CCC1.[Pt+2] [carboplatin] here?
**A.** induces CDK5 activation

**Q.** With CC(C)[C@H](CO)Nc1nc(Nc2cccc(Cl)c2)c2ncn(C(C)C)c2n1 [purvalanol A] as the compound, how does the “Effect of CDK inhibitor on tau phosphorylation in vitro” value (p25/CDK5 [1]) read?
**A.** completely blocked

**Q.** What about the “Effect of CDK inhibitor on tau phosphorylation in vitro” value (p35/CDK5 [2]) of the same compound?
**A.** completely blocked

**Q.** And the “CRMP2 phosphorylation at Ser522 (immunofluorescence)” value [3]?
**A.** reduces

**Q.** What about the “CRMP4 phosphorylation at Ser522 (immunofluorescence)” value [3] of the same compound?
**A.** does not alter

**Q.** And the “Intensity of staining and number of cells stained for phospho-Ser522 of CRMP2 (immunohistochemistry)” value [4]?
**A.** reduced

**Q.** And the “Tau phosphorylation at Ser235 (immunohistochemistry)” value [4]?
**A.** not significantly affected

**Q.** And the “Tau phosphorylation at Thr205 (immunohistochemistry)” value [4]?
**A.** not significantly affected

**Q.** Which Effect on proliferation (MCF-7) does the source give for CC[C@H](CO)Nc1nc(NCc2ccccc2)c2ncn(C(C)C)c2n1 [roscovitine] here?
**A.** enhances the proliferation

**Q.** What about the Effect on proliferation (MDA-MB321) of the same compound?
**A.** enhances the proliferation

**Q.** With “CRMP1: recombinant collapsin response mediator protein 1, proposed CDK5 substrate” as the compound, how does the Km (p35/CDK5 [5]) read?
**A.** 1.26 µM

**Q.** What about the Vmax (p35/CDK5 [5]) of the same compound?
**A.** 0.735 pmol/min

**Q.** What about the Km (p25/CDK5 [6]) of the same compound?
**A.** 1.46 µM

**Q.** And the Vmax (p25/CDK5 [6])?
**A.** 0.191 pmol/min

**Q.** With “CRMP4: recombinant collapsin response mediator protein 4, proposed CDK5 substrate” as the compound, how does the Km (p35/CDK5 [5]) read?
**A.** 0.401 µM

**Q.** And the Vmax (p35/CDK5 [5])?
**A.** 0.665 pmol/min

**Q.** And the Km (p25/CDK5 [6])?
**A.** 0.252 µM

**Q.** And the Vmax (p25/CDK5 [6])?
**A.** 0.155 pmol/min

**Q.** Which results are given for KKASAAKSPPKPRS [peptide 1.4]?
**A.** Rate of phosphorylation compared with related peptides, in words (p35/CDK5 [7]; 2 mUnits, 30 min, Fig. 1c): did not restore phosphorylation; Rate of phosphorylation compared with related peptides, in words (p25/CDK5 [8]; 2 mUnits, 30 min, Fig. 1c): did not restore phosphorylation

**Q.** Which “Selectivity of peptide substrate among CMGC kinases, in words” value (shortened to “Selectivity”) [9] does the source give for KKASAPKSPARPRS [peptide 1.1] here?
**A.** CDK5 is the most effective kinase

**Q.** Which “Reduction of rate of phosphorylation compared to peptide 1.0 and 1.1” value (p35/CDK5 [7]; 2 mUnits, 30 min, Fig. 1c) does the source give for KKASAPKSPPKPRS [peptide 1.3] here?
**A.** > 90%

**Q.** And the “Reduction of rate of phosphorylation compared to peptide 1.0 and 1.1” value (p25/CDK5 [8]; 2 mUnits, 30 min, Fig. 1c)?
**A.** > 90%

**Q.** What about the “Phosphorylation by PICTAIRE compared with CDK5, in words” value (PICTAIRE) of the same compound?
**A.** to a greater extent than CDK5

**Q.** Which “Rate of phosphorylation compared with related peptides, in words” value (p35/CDK5 [7]; 2 mUnits, 30 min, Fig. 1c) does the source give for KKASAPKSPRKPRS [peptide 1.0] here?
**A.** twice the rate

**Q.** What about the “Phosphorylation of substrate class peptides, in words” value (p35/CDK5 [7]) of the same compound?
**A.** much better substrates

**Q.** What about the “Rate of phosphorylation compared with related peptides, in words” value (p25/CDK5 [8]; 2 mUnits, 30 min, Fig. 1c) of the same compound?
**A.** twice the rate

**Q.** And the “Phosphorylation of substrate class peptides, in words” value (p25/CDK5 [8])?
**A.** much better substrates

**Q.** What about the “Phosphorylation by PICTAIRE relative to a matched amount of MBP kinase activity of CDK5” value (PICTAIRE) of the same compound?
**A.** < 80%

**Q.** And the “Selectivity” value [9]?
**A.** highly selective for CDK5

**Q.** What does the source list for KKASAPVSPPRDRK [Class 2]?
**A.** Phosphorylation of substrate class peptides, in words (p35/CDK5 [7]): relatively poor substrate; Phosphorylation of substrate class peptides, in words (p25/CDK5 [8]): relatively poor substrate

**Q.** Which “Selectivity” value [9] does the source give for KKASAPVSPRKPRS [peptide 1.2] here?
**A.** CDK5 is the most effective kinase

**Q.** For KKENNVLSPLPSQA [Class 4], which “Phosphorylation of substrate class peptides, in words” value (p35/CDK5 [7]) is on record?
**A.** not phosphorylated

**Q.** And the “Phosphorylation of substrate class peptides, in words” value (p25/CDK5 [8])?
**A.** not phosphorylated

**Q.** What does the source list for KKPKSRRSPPSIPT [Class 3]?
**A.** Phosphorylation of substrate class peptides, in words (p35/CDK5 [7]): not phosphorylated; Phosphorylation of substrate class peptides, in words (p25/CDK5 [8]): not phosphorylated
